Measurements published in patent US6680058B1, “Compositions and methods for contraception in or sterilization of mammals” (Board of Supervisors of Louisiana State University and …, priority 1997, dated 2004).
Where no end group is shown, it is not given here.

Assays:
[1] = test system: gonadotropes in the pituitary and neurons in the brain bearing GnRH receptors; experiment: Rats, treatments generally similar to treatments 9-14, immunohistochemical staining (Example 23); type: in vivo, rat; conditions: fusion peptide administered
Protocol: Subsequent experiments were conducted on rats using treatments generally similar to treatments 9-14 above. […] The selective killing of these cells was seen after the GnRH-hecate fusion peptide was administered; and after the administration of GnRH alone, followed 10 minutes later by the administration of hecate alone.

[2] = test system: sexually mature, mixed breed, female rats; experiment: Sexually mature female rats, double intravenous treatment, necropsy two weeks after treatment (Examples 9-14); type: in vivo, rat
Description: Eighteen sexually mature, mixed breed, female rats were randomly assigned to one of six groups containing three rats each. Each group of rats received a double treatment intravenously, as described below. Two weeks after the treatment, the rats were sacrificed and necropsied. The reproductive and endocrine organs were sectioned, weighed, and examined histologically.

[3] = test system: sexually mature female New Zealand rabbits; experiment: Sexually mature female New Zealand rabbits, intravenous GnRH-hecate, GnRH challenge day 46, histology day 47 (Examples 44-46); type: in vivo, rabbit
Protocol: Seven sexually mature female New Zealand rabbits were injected intravenously with saline containing GnRH-hecate as follows:
Forty-six days later all rabbits were injected intramuscularly with 100 μg GnRH. Blood samples were collected at 0, 1, 4, and 24 hours, and LH and FSH levels in the blood samples were measured by radioimmunoassay. […] The rabbits were sacrificed the next day (day 47) for postmortem histological analysis. […] Ovarian and pituitary weights were reduced by the 10 mg GnRH-hecate treatment.

[4] = test system: pituitary basophilic (gonadotropic) cells; experiment: Adult female rat pituitary gland sections in tissue culture, histology ten hours after treatment (Examples 1-6); type: cell-based
Protocol: The pituitary gland of an adult female rat was harvested and divided into six sections of approximately equal size. One section was placed in each of six wells containing tissue culture medium at 37° C. A different treatment was applied to each well, as described below. Ten hours after treatment, the tissue from each well was fixed, and the histology of each was examined microscopically.

[5] = test system: sexually immature female rats; experiment: Sexually immature (33 day old) female rats, intravenous GnRH-hecate dose series, sacrificed at 24 hours or 14 days (Examples 39-43); type: in vivo, rat; conditions: for abnormal GnRH-receptor-containing neurons: sacrificed fourteen days after treatment
Protocol: Sexually immature (33 day old) female rats (randomly allocated into groups of three) were injected intravenously with saline or GnRH-hecate in saline as follows:
Animals were sacrificed at 24 hours or at 14 days after treatment. […] In the rats sacrificed fourteen days after treatment, 66% and 87% of the GnRH-receptor-containing neurons were abnormal in the rats that had received 1.0 and 1.5 mg of GnRH-hecate, respectively. Axonal degeneration in the 1.5 mg GnRH-hecate group was accompanied by over 90% reduction in median eminence staining for GnRH.

[6] = test system: sexually immature female rats; experiment: Sexually immature female rats, two intravenous injections, examined after reaching breeding age (Examples 7-8); type: in vivo, rat
Protocol: Two sexually immature female rats from the same litter (age 33 days) were given two intravenous injections of saline control solution 24 hours apart. After the rats reached breeding age, they were examined 105 days post-inoculation. […] During a fourteen-day monitoring period 107 days to 121 days post-inoculation, each of the control rats completed two estrous cycles. The rats were then sacrificed and necropsied. The reproductive organs appeared histologically normal.
Two sexually immature female rats from the same litter as those of Example 7 (age 33 days) were given two intravenous injections of 500 μg GnRH/hecate fusion peptide in saline 24 hours apart. After the rats reached breeding age, they were examined 105 days post-inoculation. […] Unlike the control rats, insertion of a cotton-tipped swab into the vagina was difficult. […] The rats were then sacrificed and necropsied.

[7] = Treatment 10: two 0.5 mg i.v. injections 24 hours apart, two weeks
[8] = Treatment 14: fusion peptide further purified by HPLC, two 0.5 mg i.v. injections 24 hours apart
[9] = 0.1 to 1.5 mg i.v., 24 hours or 14 days
[10] = two i.v. injections of 500 μg 24 hours apart at age 33 days, necropsy after day 121

## GnRH-hecate: fusion peptide of modified GnRH bonded directly to the lytic peptide hecate, SEQ. ID NO. 3 (QHWSYGLRPGFALALKALKKALKKLKKALKKAL; ends and bridges not checked; also: GnRH part modified, modification not given here)
[1]
  LH and FSH secretion by pituitary cells: no longer secreted either LH or FSH
[1]; treatments generally similar to treatments 9-14
  selective cell killing seen with immunohistochemical staining: selectively killed (1) gonadotropes in the pituitary, and (2) neurons in the brain bearing GnRH receptors
[2]; Treatment 10: total 1.0 mg in saline i.v. as two 0.5 mg injections 24 hours apart, two weeks
  ovarian function / follicular development: arrest of normal ovarian follicular development
[2]; [7]
  corpora lutea and follicles: Few corpora lutea were present, and those that were present appeared old. Follicles were large, and had not ruptured
  pituitary size: slightly smaller than the pituitaries from the saline control group
  uterine morphology: consistent with hormonal inactivity
[2]; [8]
  corpora lutea and follicles: Few corpora lutea were present, and those that were present appeared old. Follicles were large, and had not ruptured
  uterine morphology: consistent with hormonal inactivity
[2]; Treatment 14: fusion peptide further purified by HPLC, two 0.5 mg i.v. injections 24 hours apart, two weeks
  ovarian function / follicular development: arrest of normal ovarian follicular development
[3]; 5 mg or 10 mg i.v., challenge forty-six days later, radioimmunoassay
  LH release in response to 100 μg GnRH i.m.: released LH in response to the GnRH
[3]; 5 mg or 10 mg i.v., day 47
  cells staining alpha-MSH in the pituitary: increased numbers
  cells staining for LH in the pituitary: reduced numbers
  hippocampus and other areas of the brain containing high concentrations of GnRH: not discernibly affected
  immunoreactive GnRH in CNS areas normally containing cell bodies: faint and diffusely localized
  numbers of GnRH-induced ovulations: reduced
  numbers of corpora lutea: reduced
  numbers of tertiary follicles: reduced
  reduction in number of normal individual cell bodies: at least 50%
  terminal fields, which normally contain the axons of GnRH receptor neurons: not stained for GnRH
[3]; 5 mg or 10 mg i.v., day 47, control = 100%
  number of PAS-stained pituitary cells in the pars distalis, relative to control rabbits: 177%
[3]; 10 mg i.v., day 47
  ovarian weights: reduced
  pituitary weights: reduced
[4]; 50 μM fusion peptide, ten hours
  histology of pituitary tissue after treatment: Widespread basophilic (gonadotropic) cellular destruction
[4]; initial application of fusion peptide, second application two hours later
  histology of pituitary tissue after treatment: virtually destroyed, with only stromal cells remaining
[5]; 1.0 mg i.v.
  abnormal GnRH-receptor-containing neurons: 66%
[5]; 1.5 mg i.v.
  reduction in median eminence staining for GnRH: over 90%
  abnormal GnRH-receptor-containing neurons: 87%
[5]; [9]
  VP staining in the CNS: not altered
  precipitate in the brain: no precipitate was found in the brain
[5]; treatments with higher levels of GnRH-hecate
  morphology of GnRH-receptor-containing neurons: a large number of GnRH-receptor-containing neurons having abnormal morphologies
[6]; two i.v. injections of 500 μg 24 hours apart at age 33 days, 107 to 121 days post-inoculation
  estrous cycling during fourteen-day monitoring period: neither of the treated rats demonstrated estrous or metestrous
[6]; two i.v. injections of 500 μg 24 hours apart at age 33 days, 105 days post-inoculation
  insertion of a cotton-tipped swab into the vagina: difficult
[6]; [10]
  ovarian follicles at necropsy: contained no large follicles, and had a high number of atretic follicles
  uterine and oviductal epithelia at necropsy: thinned, inactive
[6]; two i.v. injections of 500 μg in saline 24 hours apart at age 33 days, examined 105 days post-inoculation
  appearance of external genitalia: appeared small
